Data reported in the supplement of paper PMC10307832.

Key:
Experiment in all cases: relative viability (nuclei count vs DMSO), 5 days (fraction); higher = more cells survive
[1] = compound: C1=CC=C(C(=C1)C2=CC=C(C=C2)C3=CSC4=C3C(=C(C(=O)N4)C#N)O)O + Cc1nc(NC(=O)N2CCC[C@H]2C(N)=O)sc1-c1ccnc(C(C)(C)C(F)(F)F)c1 [Alpelisib] (partner 2 µM)
In short: (§1)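 Dosing by pin tool came one day after lung cancer cell lines were seeded in 1536-well plates, using either one drug or a fixed anchor-drug dose plus five library-drug doses (not always all listed) in √10 steps. After 5 days, nuclei were counted on 4× images. Relative viability is treated-well nuclei count divided by vehicle-well nuclei count, and values are medians of duplicate plates.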

TGX 221 + Trametinib = compound: CC1=CN2C(=O)C=C(N=C2C(=C1)C(C)NC3=CC=CC=C3)N4CCOCC4 [TGX 221] + CC(=O)Nc1cccc(-n2c(=O)n(C3CC3)c(=O)c3c(Nc4ccc(I)cc4F)n(C)c(=O)c(C)c32)c1 [Trametinib] (partner 0.02 µM)
In short: as §1

TGX 221 + Vorinostat = compound: CC1=CN2C(=O)C=C(N=C2C(=C1)C(C)NC3=CC=CC=C3)N4CCOCC4 [TGX 221] + O=C(CCCCCCC(=O)Nc1ccccc1)NO [Vorinostat] (partner 1 µM)
In short: as §1

Ricolinostat + Dasatinib = compound: O=C(CCCCCCNC(=O)c1cnc(N(c2ccccc2)c2ccccc2)nc1)NO [Ricolinostat] + Cc1nc(Nc2ncc(C(=O)Nc3c(C)cccc3Cl)s2)cc(N2CCN(CCO)CC2)n1 [Dasatinib] (partner 0.075 µM)
In short: as §1

Cell Line	relative viability ([1]; first compound 0.08 µM)	relative viability ([1]; first compound 0.253 µM)	relative viability ([1]; first compound 0.8 µM)	relative viability ([1]; first compound 2.53 µM)	relative viability ([1]; first compound 8 µM)	relative viability (TGX 221 + Trametinib; first compound 0.08 µM)	relative viability (TGX 221 + Trametinib; first compound 0.253 µM)	relative viability (TGX 221 + Trametinib; first compound 0.8 µM)	relative viability (TGX 221 + Trametinib; first compound 2.53 µM)	relative viability (TGX 221 + Trametinib; first compound 8 µM)	relative viability (TGX 221 + Vorinostat; first compound 0.08 µM)	relative viability (TGX 221 + Vorinostat; first compound 0.253 µM)	relative viability (TGX 221 + Vorinostat; first compound 0.8 µM)	relative viability (TGX 221 + Vorinostat; first compound 2.53 µM)	relative viability (TGX 221 + Vorinostat; first compound 8 µM)	relative viability (Ricolinostat + Dasatinib; first compound 0.253 µM)	relative viability (Ricolinostat + Dasatinib; first compound 0.8 µM)	relative viability (Ricolinostat + Dasatinib; first compound 2.53 µM)	relative viability (Ricolinostat + Dasatinib; first compound 0.08 µM)
NCI-H2126	0.784	0.809	0.748	0.77	0.731	0.535	0.441	0.568	0.547	0.56	0.832	0.741	0.768	0.615	0.717	0.618	0.616	0.492	
NCI-H2023	0.517	0.591	0.644	0.607	0.585	0.55	0.397	0.603	0.469	0.35	0.552	0.701	0.759	0.495	0.502	0.569	0.535	0.472	
SK-LU-1	0.834	1.15	1.13	1.07	0.974	0.483	0.672	0.542	0.356	0.41	0.644	0.682	0.72	0.776	0.712	0.153	0.18	0.175	0.16
NCI-H2347	0.959	1.09	0.968	1.04	0.964	0.23	0.258	0.265	0.304	0.213	0.745	0.506	0.478	0.618	0.465	0.372	0.309	0.285	0.318
HCC-15	0.976	1.03	0.943	1.01	0.819	0.373	0.335	0.368	0.376	0.337	0.753	0.787	0.977	0.839	0.787	0.665	0.642	0.653	0.537
NCI-H1355	0.927	1	0.899	0.829	0.663	0.448	0.396	0.406	0.359	0.302	0.614	0.577	0.591	0.629	0.558	0.69	0.645	0.62	0.588
NCI-H2405	0.761	0.834	0.867	0.715	0.715	0.529	0.571	0.461	0.465	0.436	0.87	0.928	0.941	0.92	0.895	0.205	0.183	0.193	0.229
